The structures appear in SMILES notation.

This data set is described as follows: Human HepG2 cell viability assay in 384 well format. The data set is classed as toxicity, cell-based. Also noted: dose 125 nL, time 70.5 hour; concentration not given beside the values. The settings on record: HepG2 cells, read-out: Inhibition.
Turning to `COC(=O)N1CCCCC1C(=O)N1CCN(c2ncccc2C)CC1` (centres undefined), the cytotoxicity at 70.5 h was -1.8%. The value for `O=C1CC2(CCCCN2C(=O)c2ccncc2)CN1CC1CC1` (centres undefined) was 1.69%; that for `CC(CNC(=O)c1cccc(-n2cccn2)c1)Cn1ccnc1` (centres undefined) was 2.48%. In the case of `CCc1nnc2n1CCN(C(=O)c1cc3cc(F)ccc3[nH]1)C2`, the cytotoxicity at 70.5 h worked out at 0.76%. For the compound `COC1CCN(c2ccc(F)cc2CN(C)CC(N)=O)CC1`, the cytotoxicity at 70.5 h was -4.87%. Turning to `CN(Cc1cn2c(n1)CN(c1ncc(F)cn1)CC2)Cc1ccco1`, the cytotoxicity at 70.5 h is -8.98%. With `CCNc1ccnc(NC2CCN(C(=O)c3ccc(C)cc3)CC2)n1`, the cytotoxicity at 70.5 h was -13.3%. For the compound `CCN1CCCC(O)(CN(C)Cc2c(C)nn(C)c2C)C1` (centres undefined), the cytotoxicity at 70.5 h came to 2.33%. Next, `O=C(NCCn1ccc(-c2ccccn2)n1)C1CCC1`: 1.58%; `CN(C)CC1CSCCCN1C(=O)c1ccc(-n2cccc2)cc1` (centres undefined): -4.81%. Consider `Cc1cncc(C(=O)NCC2COCc3c(C)nnn3C2)c1` (centres undefined), for which the cytotoxicity at 70.5 h was 0.75%. For the compound `O=S(=O)(C1CC1)N1CCC2(CC1)CN(Cc1ccccn1)CCO2`, the cytotoxicity at 70.5 h was 14.8%.

For the compound `CCc1ccc(C(=O)O)cc1S(=O)(=O)Nc1ccc2c(c1)OCCO2`, the cytotoxicity at 70.5 h turned out to be 4.02%.

For `CCC(C(=O)NCc1ccn(-c2ccc(F)cc2)n1)N1CCCC1=O` (centres undefined), the cytotoxicity at 70.5 h worked out at 5.43%.

Take `Cc1ccc(C)c2c(O)cc(CNCC(N)=O)nc12`: the cytotoxicity at 70.5 h was -0.585%. `Cc1ccc(C(=O)N2Cc3c(CN4CCCCC4)nn(C)c3C2)cc1F`: the cytotoxicity at 70.5 h is 36.2%. `CC(C)C(=O)N1CCC(c2nc(O)cc(-c3ccncc3)n2)CC1`: the cytotoxicity at 70.5 h was -15.8%. Next, `CCc1[nH]c2c(CNC(=O)C3CNC(=O)C3)cc(C)cc2c1C` (centres undefined): -11.3%; `CNC(=O)c1nc(CN2CCOC(CCCC(C)C)C2)no1` (centres undefined): -16.2%; `CCCS(=O)(=O)CCN1CCN(C(C#N)c2ccccc2)CC1` (centres undefined): -8.86%. Take `CC(NC(=O)CCS(=O)(=O)C1CCCC1)c1nc(-c2ccccc2)c[nH]1` (centres undefined): the cytotoxicity at 70.5 h is -3.16%. With `O=S(=O)(Cc1ccc(F)c(Cl)c1)NCCOc1cccnc1`, the cytotoxicity at 70.5 h came out at 3.53%. As for `CCOc1ccc(C(=O)N2CCCC2c2c(C)nn(C)c2Cl)cn1` (centres undefined), the cytotoxicity at 70.5 h was -1.78%. For the compound `CCCN1CCN(C(=O)c2ccn(COc3ccc(F)cc3)n2)CC1`, the cytotoxicity at 70.5 h is -3.36%. The value for `COc1ccc(N2CCN(Cc3nc(CSC)no3)CC2=O)cc1` was 4.47%; that for `c1ccc(CNC[C@H]2COCc3nc4cccnc4n32)cc1` was 11.9%. On to `Cc1nc(C)n(CC2CCCCN2CC(=O)NC(C2CC2)C2CC2)n1` (centres undefined), for which the cytotoxicity at 70.5 h was determined as 3.82%.

With `Cn1cc(CN2CCCC(n3c(=O)oc4ccccc43)C2)cn1` (centres undefined), the cytotoxicity at 70.5 h was -0.583%. Take `CN1CC(=O)N(c2cccc(F)c2)CC12CCN(Cc1ccco1)C2` (centres undefined): the cytotoxicity at 70.5 h is -5.08%.

`CCn1ccnc1CN1CCCN(C(=O)c2cccc(C#N)c2)CC1`: the cytotoxicity at 70.5 h was -15.8%. Turning to `CC(C)N1CC(C(=O)NCCc2csc(-c3ccncc3)n2)CC1=O` (centres undefined), the cytotoxicity at 70.5 h is 34.8%. Next, `Cc1nnc(NCCc2coc(-c3ccc(F)cc3)n2)c(C#N)c1C`: -13.9%; `CC(C)c1nnc(CNCC2CCCN2c2cccnn2)o1` (centres undefined): -6.87%. For `COc1nccnc1N1CCC2(CCCN(C(C)C)C2=O)C1` (centres undefined), the cytotoxicity at 70.5 h was -4.89%.

For the compound `CCc1nnc(CN(C)Cc2cccc(C(=O)Nc3ccnn3C)c2)o1`, the cytotoxicity at 70.5 h worked out at 1.53%. Turning to `Cc1cccc(NC2CCN(C(=O)Nc3cc(F)ccc3F)CC2)n1`, the cytotoxicity at 70.5 h is 0.351%. `O=C(c1cnccn1)N1CCN(Cc2csc(-c3ccccc3)n2)CC1`: the cytotoxicity at 70.5 h was determined as 10.5%. Next, `CCNc1nc2c(s1)C(=O)CN(C(=O)NCc1ccccc1)C2`: -0.493%; `Fc1ccc(N2CCOC(Cc3cccnc3)C2)cc1` (centres undefined): -9.3%. For the compound `N#Cc1cc(NC(=O)c2ccccn2)ccc1N1CCC(O)CC1`, the cytotoxicity at 70.5 h is -3.91%.

With `O=C(c1ccsc1)N1C[C@@H]2CCN(C(=O)c3cccc(F)c3)[C@@H]2C1`, the cytotoxicity at 70.5 h was -11.5%. On to `O=C(CN1CCCC(Cn2cncn2)C1)Nc1cccnc1` (centres undefined), for which the cytotoxicity at 70.5 h was determined as 0.545%. In the case of `Cc1nccnc1N1CCC(Cc2ccccc2Cl)(C(=O)O)CC1`, the cytotoxicity at 70.5 h is -11.4%. On to `COCCN1C(=O)[C@]2(CC[C@@H]3CN(Cc4ccccc4F)C[C@@H]32)N=C1C`, for which the cytotoxicity at 70.5 h is -9.72%.

For `CC1(C)CNC(=O)c2nc(C3CCCN(S(C)(=O)=O)C3)[nH]c2C1` (centres undefined), the cytotoxicity at 70.5 h is -6.33%. As to `CCOC(=O)c1sc2ccsc2c1CNC(=O)C(C)OC` (centres undefined), the cytotoxicity at 70.5 h is 3.36%. The value for `O=C(CSC1=NS(=O)(=O)c2cc(F)ccc2N1)c1ccc(Cl)cc1` was -17.3%; that for `COc1cc(-c2cc(=O)[nH]cn2)cc(OC)c1OC` was -5.45%; that for `CC(C)NC(=O)CC(C)NC(=O)N(C)Cc1cc(Cl)cn1C` (centres undefined) was -8.56%. With `O=C(NCC1CC1)C1CN(C(=O)c2cnccn2)CC12CCOCC2` (centres undefined), the cytotoxicity at 70.5 h was -2.91%.

Regarding `Cc1nc(CN2C[C@@H]3CN(C(=O)C4(C#N)CC4)C[C@@H]3C2=O)cs1`, the cytotoxicity at 70.5 h is -2.26%. Turning to `O=C(Nc1ccccc1-c1cccs1)N1CCN(CC(F)F)CC1`, the cytotoxicity at 70.5 h is -11.6%. As to `O=C(CCc1nc(-c2ccccn2)no1)N1CCCC1c1ccsc1` (centres undefined), the cytotoxicity at 70.5 h was -10.3%. In the case of `CC(C)N1CCC(NC(=O)NCc2ccccc2)CC1`, the cytotoxicity at 70.5 h was -0.0959%. For the compound `CCOCC1CN(c2ccncn2)Cc2cnn(CC3CC3)c21` (centres undefined), the cytotoxicity at 70.5 h was -7.56%. The value for `CCN1CCC2(CC1)CC(CC(=O)N(C)C)c1ccc(F)cc12` (centres undefined) was 33.5%. `O=C1CN(Cc2cnc3c(-c4ccccc4)cnn3c2)CCCN1`: the cytotoxicity at 70.5 h is -6.12%. `COc1ccc(NC(=O)Nc2c(O)c3ccccc3oc2=O)cc1`: the cytotoxicity at 70.5 h was -1.02%. Regarding `O=S(=O)(CCCn1cncn1)Cc1cccc(F)c1`, the cytotoxicity at 70.5 h is -9.13%. As for `Nc1ccc(-c2cc(O)cc(CCC3CCCCN3)c2)cn1` (centres undefined), the cytotoxicity at 70.5 h was -5.09%. Consider `CC(C)Cc1noc(COc2ccc(N(C)C(N)=O)cc2)n1`, for which the cytotoxicity at 70.5 h is -6.27%. For the compound `Cc1noc(-c2ccc(N(C)Cc3ccncc3C)nc2)n1`, the cytotoxicity at 70.5 h is -5.41%.

For `CC(C)(C)C(=O)N1C[C@H](c2ccsc2)[C@H]2CN(C3CCCCC3)CC[C@H]21`, the cytotoxicity at 70.5 h was -3.27%. The value for `CCn1nc2c(cc1=O)CN(CC(=O)Nc1cc(C)no1)CC2` was -0.888%.

Consider `CCOc1ccccc1CN(C)C(C)c1nc(-c2cccnc2)no1` (centres undefined), for which the cytotoxicity at 70.5 h was -3.75%. On to `OCCOc1cc(F)ccc1NCc1nc(-c2ccoc2)no1`, for which the cytotoxicity at 70.5 h was 8.3%. With `O=C(c1cccc(S(=O)(=O)NCCCc2ccco2)c1)N1CCOCC1`, the cytotoxicity at 70.5 h stood at 3.78%. Next, `CN(Cc1ccsc1)C(=O)c1cc2c([nH]c1=O)CCCC2=O`: -12.8%.

Take `CSCC[C@@H]1CN2CCC[C@H]2CN1Cc1coc2ccc(Cl)cc2c1=O`: the cytotoxicity at 70.5 h is -5.47%. For the compound `CCN(Cc1noc(C)n1)C(=O)C(c1ccccc1C)N(C)C` (centres undefined), the cytotoxicity at 70.5 h was -6.06%. `Cn1cc(NC(=O)Cc2ccccc2Br)cc1C(N)=O`: the cytotoxicity at 70.5 h was -2.69%. Regarding `O=C(C1CCOC1)N1CCc2ncnc(NC3CCC3)c2CC1` (centres undefined), the cytotoxicity at 70.5 h was -2.47%.

Turning to `Cc1ccc(C(=O)N2CCN(Cc3cccs3)CC2)n1C`, the cytotoxicity at 70.5 h is -14.9%. As for `Cc1ncc(-c2ccnc(N3CCCCCC3)n2)c(-c2cccnc2)n1`, the cytotoxicity at 70.5 h was -10.6%. Next, `Cc1nn(C)c(C)c1-c1cnc(C2CCCN(S(C)(=O)=O)C2)cn1` (centres undefined): -9.63%. As to `CC(C)C1CCCN1CCCc1nc(-c2cccs2)no1` (centres undefined), the cytotoxicity at 70.5 h turned out to be 2.81%. Turning to `Cc1nc2c(N3CCC(O)(Cn4ccnc4)CC3)ncnc2o1`, the cytotoxicity at 70.5 h was -0.124%.

In the case of `Cc1nc2cc(-c3nccn3C)nn2c(N2CCCC(O)C2)c1C` (centres undefined), the cytotoxicity at 70.5 h turned out to be 0.494%.

Turning to `Cc1cnn(CC2CN(Cc3nc(N)c4ccccc4n3)CCO2)c1` (centres undefined), the cytotoxicity at 70.5 h amounted to 22.8%. As to `Cc1nn(C)cc1C1=NS(=O)(=O)N(C)C(C(=O)Nc2ccc(Br)cc2)=C1`, the cytotoxicity at 70.5 h is 0.0552%. Consider `O=C(c1cnc(NCC2CCCO2)c(Cl)c1)N1CCOCC1` (centres undefined), for which the cytotoxicity at 70.5 h is -9.69%. As for `CC(C)=CCS(=O)(=O)Cc1nc(C(C)C)no1`, the cytotoxicity at 70.5 h is -11.6%. As to `Cc1c(C(=O)N(C)CC(F)(F)F)nnn1-c1ccccc1Cl`, the cytotoxicity at 70.5 h came out at 6.88%.

Consider `c1ccc(CN2Cc3ccnn3CC(COCc3cccnc3)C2)nc1` (centres undefined), for which the cytotoxicity at 70.5 h is -9.03%. Turning to `Cc1cc(C(O)CCNC(=O)COc2ccccc2F)c(C)o1` (centres undefined), the cytotoxicity at 70.5 h is -0.424%. As for `CCc1[nH]c(C2(N)CCCC2)nc(=O)c1C`, the cytotoxicity at 70.5 h is 19.5%.

As to `Cc1cc(C(=O)Nc2ccc(-c3nnc(N(C)C)o3)cc2)oc1C`, the cytotoxicity at 70.5 h amounted to 14.7%.

For the compound `CCOCCN(C)C(=O)Nc1cccc2c1CCN(CC)C2`, the cytotoxicity at 70.5 h worked out at 10.2%. With `O=C(NCCCn1nc2ccccn2c1=O)NC1CCC(O)CC1` (centres undefined), the cytotoxicity at 70.5 h worked out at 9.94%. On to `c1ccc(-c2noc(CCNC3CCOC4(CCOCC4)C3)n2)nc1` (centres undefined), for which the cytotoxicity at 70.5 h is -8.03%.

With `CCOc1ccccc1OC1CCN(C(=O)c2cnns2)CC1`, the cytotoxicity at 70.5 h is -3.73%. Regarding `CSc1nccc(N2CCC(NCc3nc(C)cc(C)n3)CC2)n1`, the cytotoxicity at 70.5 h was 1.01%. `CN1CCCC(c2n[nH]c3ncccc23)C1` (centres undefined): the cytotoxicity at 70.5 h is -11.4%. For `O=C1[C@@H]2CN(c3ncccc3Cl)C[C@]2(C(=O)O)CN1CC1CC1`, the cytotoxicity at 70.5 h was -7.05%. For the compound `O=C(CN1C(=O)CCC1=O)N1CCC(S(=O)(=O)Cc2ccco2)CC1`, the cytotoxicity at 70.5 h was -3.03%. Next, `COc1ccc(CC(=O)N2CCCC2Cn2cccn2)cc1F` (centres undefined): -9.94%; `COc1ccc(-c2noc(CN3CCc4cncnc4C3)n2)cc1`: -8.79%. On to `COCCC1(C(=O)O)CCCN(Cc2ccccc2OCCO)C1` (centres undefined), for which the cytotoxicity at 70.5 h was -8.44%. In the case of `CCCOc1ccc(CNC2CCCc3c2cnn3CC)cc1OC` (centres undefined), the cytotoxicity at 70.5 h was determined as 29.4%.

The values are drawn from ChEMBL document CHEMBL3507680, “University of Dundee, Gates Library screen for HepG2 cell viability”.
